Experimental data reported in PMC10999543, “Identification of kinase modulators as host-directed therapeutics against intracellular methicillin-resistant Staphylococcus aureus” (Frontiers in Cellular and Infection Microbiology, 2024).
Where two headings read alike, the source gives them in different places.

What was measured:
[1] = system: HeLa cells; assay: Compound screen by flow cytometry: HeLa cell count as surrogate readout of cell viability (z-scoreHeLa); format: cell-based, human
Method in brief: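 HeLa cells were infected with GFP-MRSA (mean MOI 6.8 ± 4.6) for 1 h, and extracellular bacteria were killed with 30 µg/ml gentamicin. Cells were then incubated overnight with kinase inhibitors in 5 µg/ml gentamicin, in triplicate against DMSO controls. Flow-cytometric cell count served as a viability surrogate, expressed as a plate z-score.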

[2] = system: intracellular MRSA; format: cell-based, Staphylococcus aureus; conditions: for %GFP+ rep 1 / z-scoreMRSA+ rep 1: replicate 1; for %GFP+ rep 2 / z-scoreMRSA+ rep 2: replicate 2; for %GFP+ rep 3 / z-scoreMRSA+ rep 3: replicate 3; for z-scoreMRSA+ mean: mean of 3 replicates
Method in brief: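 HeLa, MRSA-GFP at MOI ~6.8, 1 h infection; gentamicin 30 µg/ml for 15 min; inhibitor plus gentamicin 5 µg/ml overnight, 37°C/5% CO2; triplicate plates; FACS %GFP+ and cell count; hit = z ≤ -2 MRSA+, z ≥ -3 count.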

[3] = PKIS compound screen raw data, HeLa cell count, replicate 1
[4] = PKIS compound screen raw data, HeLa cell count, replicate 2
[5] = PKIS compound screen raw data, HeLa cell count, replicate 3
[6] = compound screen, HeLa cell count, mean of 3 replicates
[7] = compound screen, HeLa cell count, replicate 1
[8] = compound screen, HeLa cell count, replicate 2
[9] = compound screen, HeLa cell count, replicate 3
[10] = PKIS compound screen raw data, MRSA-infected HeLa cells
[11] = Yes/No: effect without cell death
[12] = compound screen, MRSA-infected HeLa cells
[13] = PKIS compound screen, HeLa cell count, mean of 3 replicates
[14] = PKIS compound screen, HeLa cell count, replicate 1
[15] = PKIS compound screen, HeLa cell count, replicate 2
[16] = PKIS compound screen, HeLa cell count, replicate 3
[17] = PKIS compound screen, Yes/No call on z-scoreHeLa
[18] = PKIS compound screen, MRSA-infected HeLa cells
[19] = PKIS compound screen, Yes/No call (effect without cell death)
[20] = PKIS compound screen, Yes/No call on z-scoreMRSA+
[21] = PKIS compound screen, Yes/No call
[22] = PKIS compound screen, mean of 3 replicates
[23] = PKIS compound screen, replicate 1
[24] = PKIS compound screen, replicate 2
[25] = PKIS compound screen, replicate 3
[26] = PKIS compounds raw data, replicate 1, HeLa cell count
[27] = PKIS compounds raw data, replicate 2, HeLa cell count
[28] = PKIS compounds raw data, replicate 3, HeLa cell count
[29] = PKIS compounds raw data, MRSA-infected HeLa cells

Compound	cell count rep 1 [1, 3]	cell count rep 2 [1, 4]	cell count rep 3 [1, 5]	%GFP+ rep 1 [2, 10]	%GFP+ rep 2 [2, 10]	%GFP+ rep 3 [2, 10]	hit [2, 19]	cell death [1, 21]	z-scoreHeLa mean [1, 22]	z-scoreHeLa rep 1 [1, 23]	z-scoreHeLa rep 2 [1, 24]	z-scoreHeLa rep 3 [1, 25]	cell count rep 1 [1, 26]	cell count rep 2 [1, 27]	cell count rep 3 [1, 28]	effect [2, 21]	z-scoreMRSA+ mean ([2]; PKIS compound screen)	z-scoreMRSA+ rep 1 ([2]; PKIS compound screen)	z-scoreMRSA+ rep 2 ([2]; PKIS compound screen)	z-scoreMRSA+ rep 3 ([2]; PKIS compound screen)	also measured
NCCCC(NC(=O)c1cc(Br)c(-c2ccnc3[nH]ccc23)s1)c1ccccc1 (stereo not drawn) [GSK1287544A]	6296	6004	7754	26.9%	27.6%	25.5%	–	–	–	–	–	–	–	–	–	–	–	–	–	–	cell death ([1]; Yes/No call from z-scoreHeLa): No; z-scoreHeLa mean [1, 6]: 1.43; z-scoreHeLa rep 1 [1, 7]: 1.40; z-scoreHeLa rep 2 [1, 8]: 1.31; z-scoreHeLa rep 3 [1, 9]: 1.59; effect ([2]; Yes/No call from z-scoreMRSA+): No; hit [2, 11]: No; z-scoreMRSA+ mean [2, 12]: 0.86; z-scoreMRSA+ rep 1 [2, 12]: 0.38; z-scoreMRSA+ rep 2 [2, 12]: 1.21; z-scoreMRSA+ rep 3 [2, 12]: 0.99
O=c1cc(N2CCOCC2)nc2n(Cc3cccc(Cl)c3Cl)c(C3CC3)nn12 [GSK2358994A]	42747	35107	37884	12.1%	13.2%	14.9%	No	–	–	–	–	–	–	–	–	–	–	–	–	–	z-scoreHeLa mean [1, 13]: 2.50; z-scoreHeLa rep 1 [1, 14]: 2.13; z-scoreHeLa rep 2 [1, 15]: 1.69; z-scoreHeLa rep 3 [1, 16]: 3.69; cell death [1, 17]: No; z-scoreMRSA+ mean [2, 18]: -1.74; z-scoreMRSA+ rep 1 [2, 18]: -1.78; z-scoreMRSA+ rep 2 [2, 18]: -1.70; z-scoreMRSA+ rep 3 [2, 18]: -1.73; effect [2, 20]: No
O=C(Nc1ccc(Oc2ccc3nc(NC(=O)c4ccco4)[nH]c3c2)cc1)Nc1cc(C(F)(F)F)ccc1F [GW683134A]	24828	19604	15141	9.6%	11.2%	12.6%	–	–	–	–	–	–	–	–	–	–	–	–	–	–	cell death ([1]; Yes/No call from z-scoreHeLa): No; z-scoreHeLa mean [1, 6]: -0.87; z-scoreHeLa rep 1 [1, 7]: -0.91; z-scoreHeLa rep 2 [1, 8]: -0.97; z-scoreHeLa rep 3 [1, 9]: -0.74; effect ([2]; Yes/No call from z-scoreMRSA+): Yes; hit [2, 11]: Yes; z-scoreMRSA+ mean [2, 12]: -2.35; z-scoreMRSA+ rep 1 [2, 12]: -2.44; z-scoreMRSA+ rep 2 [2, 12]: -2.24; z-scoreMRSA+ rep 3 [2, 12]: -2.36
Fc1cc(Cl)ccc1Nc1ccnc2cc(-c3ccc(CN4CCCCC4)o3)ccc12 [GW560116X]	2203	2204	1264	26.5%	26.3%	25.6%	–	–	–	–	–	–	–	–	–	–	–	–	–	–	cell death ([1]; Yes/No call from z-scoreHeLa): No; z-scoreHeLa mean [1, 6]: -1.89; z-scoreHeLa rep 1 [1, 7]: -1.55; z-scoreHeLa rep 2 [1, 8]: -1.61; z-scoreHeLa rep 3 [1, 9]: -2.51; effect ([2]; Yes/No call from z-scoreMRSA+): No; hit [2, 11]: No; z-scoreMRSA+ mean [2, 12]: 0.73; z-scoreMRSA+ rep 1 [2, 12]: 0.29; z-scoreMRSA+ rep 2 [2, 12]: 0.89; z-scoreMRSA+ rep 3 [2, 12]: 1.02
NS(=O)(=O)c1ccc(N/C=C2\C(=O)Nc3ccc4ncsc4c32)cc1 [GW297361X]	–	–	–	–	–	–	No	No	-1.04	-1.65	-0.59	-0.88	2950	3493	5130	No	0.46	0.87	1.17	-0.68	%GFP+ rep 1 [2, 29]: 15.9%; %GFP+ rep 2 [2, 29]: 17.0%; %GFP+ rep 3 [2, 29]: 13.6%
COc1ccc(S(=O)(=O)NC2CCN(c3cc(C)nc(Nc4cccc(C#N)c4)n3)CC2)cc1 [GSK1653539A]	25166	21326	16886	17.8%	20.5%	23.1%	No	No	0.33	0.22	0.92	-0.16	6417	7400	5350	No	0.99	0.85	0.68	1.43	z-scoreHeLa mean [1, 13]: -0.64; z-scoreHeLa rep 1 [1, 14]: -0.85; z-scoreHeLa rep 2 [1, 15]: -0.68; z-scoreHeLa rep 3 [1, 16]: -0.40; cell death [1, 17]: No; z-scoreMRSA+ mean [2, 18]: 0.18; z-scoreMRSA+ rep 1 [2, 18]: -0.26; z-scoreMRSA+ rep 2 [2, 18]: 0.30; z-scoreMRSA+ rep 3 [2, 18]: 0.51; effect [2, 20]: No; %GFP+ rep 1 [2, 29]: 31.4%; %GFP+ rep 2 [2, 29]: 29.6%; %GFP+ rep 3 [2, 29]: 35.0%
CN(C)c1cc2c(Nc3ccc4nc(Cc5ccccc5)[nH]c4c3)ncnc2cn1 [GW301888X]	–	–	–	–	–	–	No	No	0.66	0.47	0.90	0.61	6836	7361	6557	No	0.0238	-0.0117	0.30	-0.22	%GFP+ rep 1 [2, 29]: 27.0%; %GFP+ rep 2 [2, 29]: 27.6%; %GFP+ rep 3 [2, 29]: 26.1%
Cc1ccc(O)cc1Nc1ccnc2ccc(S(C)(=O)=O)cc12 [GW559768X]	–	–	–	8.1%	10.1%	9.8%	Yes	–	–	–	–	–	–	–	–	–	–	–	–	–	cell death [1]: No; cell count rep 1 ([1]; human): 30393; cell count rep 2 ([1]; human): 35205; cell count rep 3 ([1]; human): 44674; z-scoreHeLa mean ([1]; human): 0.77; z-scoreHeLa rep 1 ([1]; human): 1.56; z-scoreHeLa rep 2 ([1]; human): 0.08; z-scoreHeLa rep 3 ([1]; human): 0.66; z-scoreMRSA+ mean [2, 18]: -2.90; z-scoreMRSA+ rep 1 [2, 18]: -3.11; z-scoreMRSA+ rep 2 [2, 18]: -2.53; z-scoreMRSA+ rep 3 [2, 18]: -3.05; effect [2, 20]: Yes
Cn1cc(-c2ccc3c(c2)CCN3C(=O)Cc2ccccc2Cl)c2c(N)ncnc21 [GSK2608885A]	–	–	–	–	–	–	No	No	-0.08	-0.13	0.00891	-0.13	5830	6021	5398	No	0.34	0.11	0.57	0.34	%GFP+ rep 1 [2, 29]: 27.6%; %GFP+ rep 2 [2, 29]: 29.0%; %GFP+ rep 3 [2, 29]: 29.1%
COC(=O)Nc1nc2ccc(Oc3ccc(NC(=O)Nc4cc(C(F)(F)F)ccc4F)cn3)cc2[nH]1 [GW681170A]	5819	4937	6470	25.2%	20.8%	21.7%	–	–	–	–	–	–	–	–	–	–	–	–	–	–	cell death ([1]; Yes/No call from z-scoreHeLa): No; z-scoreHeLa mean [1, 6]: 0.78; z-scoreHeLa rep 1 [1, 7]: 1.06; z-scoreHeLa rep 2 [1, 8]: 0.49; z-scoreHeLa rep 3 [1, 9]: 0.78; effect ([2]; Yes/No call from z-scoreMRSA+): No; hit [2, 11]: No; z-scoreMRSA+ mean [2, 12]: -0.20; z-scoreMRSA+ rep 1 [2, 12]: -0.0173; z-scoreMRSA+ rep 2 [2, 12]: -0.44; z-scoreMRSA+ rep 3 [2, 12]: -0.15
Cc1cccc(-c2nc(Nc3cccc(C(N)=O)c3)c3ccccc3n2)n1 [GW876019X]	25839	10617	8442	11.7%	12.9%	16.0%	No	No	-1.99	-2.12	-2.54	-1.32	2511	2183	3514	No	0.49	0.42	0.20	0.84	z-scoreHeLa mean [1, 13]: -1.76; z-scoreHeLa rep 1 [1, 14]: -0.74; z-scoreHeLa rep 2 [1, 15]: -2.51; z-scoreHeLa rep 3 [1, 16]: -2.04; cell death [1, 17]: No; z-scoreMRSA+ mean [2, 18]: -1.70; z-scoreMRSA+ rep 1 [2, 18]: -1.89; z-scoreMRSA+ rep 2 [2, 18]: -1.78; z-scoreMRSA+ rep 3 [2, 18]: -1.43; effect [2, 20]: No; %GFP+ rep 1 [2, 29]: 29.2%; %GFP+ rep 2 [2, 29]: 27.1%; %GFP+ rep 3 [2, 29]: 31.8%
